We go through six sequences from patent US20160251403A1, “PEPTIDE COMBINATIONS AND USES THEREOF IN TREATING DUST MITE ALLERGY” (ALK-ABELLO A/S, priority 2013, published 2016).

Where a chain is given by its changes, count along the chain named. pIC50: −log10 of the molar value. No end group written: not given here.

The target of experiment [1] is DRB1_0901 (Homo sapiens, UniProt P01903+P01911, A100R/A103E/D57H/D86V/F55Y/F60I/F76Y/I96F/K127E/L162R/M171V/P40D/Q125H/Q99R/R33Q/R42F/S133A/S66N/T210M/V115G/W38K/Y107V/Y59G/Y89S). As to the kind of experiment: Competitive MHC class II binding assay, DRB1_0901.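 Also: displacement of a radiolabeled probe peptide from purified HLA class II protein, bound counts read after two to four days incubation, six concentrations spanning 100,000-fold, unlabeled probe as reference.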
Experiment [2] addresses DRB5_0101 (Homo sapiens, UniProt P01903+Q30154). As to the kind of experiment: Competitive MHC class II binding assay, DRB5_0101.
The target of experiment [3] is DQA10501-DQB10301 (Homo sapiens, UniProt P01909+P01920). As to the kind of experiment: Competitive MHC class II binding assay, DQA10501-DQB10301.
The target in experiment [4] is DRB1_0802 (Homo sapiens, UniProt P01903+P01911, A100R/A103L/A169T/F76Y/H45Y/I96F/K41T/L162R/M171V/P40S/Q125H/Q178H/Q39Y/Q99D/R218S/R42G/S66Y/V115G/W38E). Briefly: Competitive MHC class II binding assay, DRB1_0802.
The target of experiment [5] is DRB1_0401 (Homo sapiens, UniProt P01903+P01911, A100K/A169T/F76Y/I96L/K127E/L162R/M171V/N62H/P40V/Q125Y/R42H/S133A/S149N/S66Y/V115G/V209L/W38E). As to the kind of experiment: Competitive MHC class II binding assay, DRB1_0401.
Experiment [6] concerns the target DQA10102-DQB10602. Briefly: Competitive MHC class II binding assay, DQA10102-DQB10602. To be noted: read-out: HLA-DQA10102-DQB10602; positive binding at cutoff 1000 nM.
Experiment [7] deals with DRB1_0101 (Homo sapiens, UniProt P01903+P01911, A100R/D57E/F55L/F60I/F76Y/I96L/L162R/M171V/P40L/Q125E/R42F/V115G/Y59C). Briefly: Competitive MHC class II binding assay, DRB1_0101.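 Also: competition against a radiolabeled probe peptide (0.1–1 nM) for purified HLA class II protein over 2–4 days, bound counts read after antibody capture, six competitor levels across 100,000-fold.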
Experiment [8] has as its target T1, DPA10202-DPB10501 (Homo sapiens, UniProt P04440+P20036, A42M/A65V/A84E/F191V/F64L/G113D/G114E/K142R/L158P/M116V/M62Q/P115A/Q81R/R125K/T114A/T199I/T259P/V234M).
T1 sequence (P04440 30-258 A65V/A84E/F64L/G113D/G114E/M116V/P115A/R125K/T199I/V234M): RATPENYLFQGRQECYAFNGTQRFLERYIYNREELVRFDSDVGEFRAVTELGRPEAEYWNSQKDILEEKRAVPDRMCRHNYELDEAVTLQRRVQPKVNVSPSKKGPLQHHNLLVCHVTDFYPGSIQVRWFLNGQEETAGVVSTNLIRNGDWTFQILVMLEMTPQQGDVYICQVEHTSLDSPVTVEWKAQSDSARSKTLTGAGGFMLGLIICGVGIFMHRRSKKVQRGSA
T1 sequence (P20036 29-260 A42M/F191V/K142R/L158P/M62Q/Q81R/T114A/T259P): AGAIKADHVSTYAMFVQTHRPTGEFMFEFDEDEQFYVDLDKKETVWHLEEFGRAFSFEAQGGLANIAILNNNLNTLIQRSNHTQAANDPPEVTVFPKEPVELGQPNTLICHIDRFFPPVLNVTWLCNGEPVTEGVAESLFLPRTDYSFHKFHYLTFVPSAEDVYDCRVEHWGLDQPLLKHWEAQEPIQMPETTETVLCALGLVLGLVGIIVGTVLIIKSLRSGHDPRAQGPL
Briefly: Competitive MHC class II binding assay, DPA10202-DPB10501. To be noted: positive binding at cutoff 1000 nM; read-out: HLA-DPA10202-DPB10501.

Experiment [9] has as its target DRB1_1302 (Homo sapiens, UniProt P01903+P01911, A100E/A169T/K41T/L162R/M171V/P40S/Q125H/Q178H/Q39Y/Q99D/R42S/S66N/T262R/V115G/W38E/Y61H). As to the kind of experiment: Competitive MHC class II binding assay, DRB1_1302.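 Also: purified HLA class II protein incubated two to four days with a radiolabeled reference binder and test peptide at six concentrations over a 100,000-fold range, complex-bound radioactivity counted.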
Experiment [10] addresses DQA10301-DQB10302 (Homo sapiens, UniProt P01909+P01920, A209T/A45G/C70Q/D89A/DUP78-78/E183D/E77G/F237L/G63E/H199R/I129T/K197E/L178F/L74F/L98V/Q57E/Q76R/S185I/S97I/T217I/T49S/V73L/Y58L). As to the kind of experiment: Competitive MHC class II binding assay, DQA10301-DQB10302.
Experiment [11] has as its target DRB1_0701 (Homo sapiens, UniProt P01903+P01911, A100R/A102G/A103Q/D57E/D86V/E43K/F76Y/K127E/L162R/M171V/P40G/Q125H/Q99D/R33Q/R42Y/R54Q/S133A/S66F/T210M/V115G/Y107V/Y59L/Y89S). As to the kind of experiment: Competitive MHC class II binding assay, DRB1_0701.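 Also: displacement of a radiolabeled reference peptide from purified HLA class II protein, with complex-bound radioactivity counted after 2–4 days of incubation and six concentrations spanning a 100,000-fold range.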
The target of experiment [12] is T2, DPA10103-DPB10402 (Homo sapiens, UniProt P04440+P20036, A65V/A84D/A85E/L207M).
T2 sequence (P20036 29-260): T1 sequence (P20036 29-260 A42M/F191V/K142R/L158P/M62Q/Q81R/T114A/T259P) with M14A, Q34M, R53Q, A86T, R114K, P130L, V163F, P231T
T2 sequence (P04440 30-258 A65V/A84D/A85E): T1 sequence (P04440 30-258 A65V/A84E/F64L/G113D/G114E/M116V/P115A/R125K/T199I/V234M) with L35F, E55D, A56E, D84G, E85G, A86P, V87M, K96R, I170T, M205V
As to the kind of experiment: Competitive MHC class II binding assay, DPA10103-DPB10402.

Experiment [13] concerns the target DQA10501-DQB10201 (Homo sapiens, UniProt P01909+P01920, A45G/A70V/D89A/E106A/E77G/E98D/H199R/L107V/N214S/P84L/P87L/T103K/T109R/T172A/T60S/V78E/V99I/Y58L/Y62S/Y69I/Y79F). As to the kind of experiment: Competitive MHC class II binding assay, DQA10501-DQB10201.
The target in experiment [14] is DRB3_0101 (Homo sapiens, UniProt P01903+P79483). As to the kind of experiment: Competitive MHC class II binding assay, DRB3_0101.
For experiment [15], the target named is DRB3_0202 (Homo sapiens, UniProt P01903+P79483, A212P/D57E/F66Y/L67A/R103Q/R218S/R40L/S89Y/T80R/V86D/Y55F/Y59H). As to the kind of experiment: Competitive MHC class II binding assay, DRB3_0202.
For experiment [16], the system named is DQA10401-DQB10402. Briefly: Competitive MHC class II binding assay, DQA10401-DQB10402.
For experiment [17], the target named is DRB1_0405 (Homo sapiens, UniProt P01903+P01911, A100R/A169T/D86S/F76Y/I96L/K127E/L162R/M171V/N62H/P40V/Q125Y/R42H/S133A/S149N/S66Y/V115G/V209L/W38E). Briefly: Competitive MHC class II binding assay, DRB1_0405.
The target of experiment [18] is DRB4_0101 (Homo sapiens, UniProt P01903+P13762, G164S). Briefly: Competitive MHC class II binding assay, DRB4_0101.
For experiment [19], the target named is DQA10101-DQB10501 (Homo sapiens, UniProt P01909+P01920, A157S/A45G/A70V/C70R/D89V/E106S/E118A/E183D/E77G/F83G/G63E/H151Q/H199R/H252R/H253Q/I129T/I235V/I88M/INS77G/K197Q/L107V/L117V/L119Y/L178F/L71W/L74F/L85Q/L91A/L98M/M46L/N214S/P87R/Q116E/Q256R/Q57E/Q76K/R102G/R240Q/R75S/R78G/S102Y/S185I/S41F/S97I/T103A/T109R/T121G/T122I/T172A/T86R/V148I/V68A/V73E/Y34C/Y58G/Y62H). Briefly: Competitive MHC class II binding assay, DQA10101-DQB10501. As to conditions: positive binding at cutoff 1000 nM; read-out: HLA-DQA10101-DQB10501.

In experiment [20] the target is DRB1_1501 (Homo sapiens, UniProt P01903+P01911). Briefly: Competitive MHC class II binding assay, DRB1_1501.

Regarding VMGDDGVLASAIATHAKIRD [pep-099], the pIC50 in experiment [1], in [2], in [3], in [4], in experiment [5] and in experiment [6] was greater than 6.00 in each case. Also, the pIC50 in [7], in [8] and in [9] was greater than 6.00 throughout.

NGYGYFAANIDLMM [pep-011]: the pIC50 in experiment [10], in experiment [1], in experiment [11], in [3], in [5] and in experiment [12] was greater than 6.00 throughout. The pIC50 is greater than 6.00 in experiment [13]; greater than 6.00 in [14]; greater than 6.00 in [7]; greater than 6.00 in experiment [15]; greater than 6.00 in experiment [16] (read-out: HLA-DQA10401-DQB10402, positive binding at cutoff 1000 nM); greater than 6.00 in [17]. The pIC50 in experiment [9], in experiment [18] and in [19] was greater than 6.00 throughout. In addition, in experiment [13] (as shown in Table 16a), the “binding to HLA Class II allele DQA10501-DQB10201” value was “binds to at least the same alleles as peptide 041”. Besides, the “binding to HLA Class II allele DRB3_0101” value in experiment [14] (as shown in Table 16a) is listed as “binds to at least the same alleles as peptide 041”. For the same sequence, the “binding to HLA Class II allele DRB3_0202” value in experiment [15] (as shown in Table 16a) is reported as “binds to at least the same alleles as peptide 041”. For the same sequence, the “binding to HLA Class II allele DQA10401-DQB10402” value in [16] (as shown in Table 16a) is “binds to at least the same alleles as peptide 041”. For the same sequence, the “binding to HLA Class II allele DRB1_1302” value in experiment [9] (as shown in Table 16a) is on record as “binds to at least the same alleles as peptide 041”.

Consider VLASAIATHAKIRD [pep-012], for which the pIC50 in experiment [1], in experiment [11], in experiment [2], in [3], in experiment [14] and in [7] was greater than 6.00 throughout. The pIC50 in experiment [8] is greater than 6.00.

As to “GVLASAIATHAKIR [HDM26B, reference compound]”, the pIC50 in experiment [1], in experiment [11], in experiment [2], in [3], in experiment [4] and in experiment [5] was greater than 6.00 in each case. For the same sequence, the pIC50 in experiment [7], in experiment [15], in experiment [20], in [8], in experiment [9] and in experiment [18] was greater than 6.00 in each case.

Consider VMGDNGVLASAIATHAKIRD [pep-125], for which the pIC50 in [10], in [1], in experiment [2], in experiment [3], in experiment [4] and in [7] was greater than 6.00 throughout. The pIC50 in experiment [8] is greater than 6.00.

On to “NYSQIYPPNVNKIREA [HDM101A, reference compound]”, for which the pIC50 in experiment [11], in [12], in experiment [7], in [15], in [20] and in experiment [9] was greater than 6.00 throughout.
